Experimental findings from patent US20250051344A1, “BIFUNCTIONAL SELECTIVE DEGRADERS OF SMARCA2 AND THERAPEUTIC USES THEREOF” (Nurix Therapeutics, Inc., priority 2023, published 2025) are described below.

The structures appear in SMILES notation.

For one experiment, the target named is T1, SMARCA2 (Homo sapiens, UniProt P51531).
T1 construct: endogenous in cells
Put plainly: SMARCA2 Cellular Degradation Assay (Western blot analysis on Jess platform). It counts as cell-based. The following applies: for DC50 / Dmax: cellular degradation; for Fold Selectivity SMARCA4/2: ratio DC50 SMARCA4 / DC50 SMARCA2. The method, boiled down: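 Cells recovered from tumors are lysed, cleared at 20,817×g, and protein is quantified by BCA. Equal protein (5 μg) is then probed on Jess for SMARCA2 and actin, and normalized SMARCA2 signal is reported against vehicle.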
On the technique in general: In western blotting, separated proteins are transferred to a membrane and probed.

In another experiment the target is T2, SMARCA4 (Homo sapiens, UniProt P51532).
T2 construct: endogenous in cells
Put plainly: Cellular degradation assay, SMARCA4 (Table 1). It is filed as cell-based.

T2 sequence (P51532 whole entry, species assumed): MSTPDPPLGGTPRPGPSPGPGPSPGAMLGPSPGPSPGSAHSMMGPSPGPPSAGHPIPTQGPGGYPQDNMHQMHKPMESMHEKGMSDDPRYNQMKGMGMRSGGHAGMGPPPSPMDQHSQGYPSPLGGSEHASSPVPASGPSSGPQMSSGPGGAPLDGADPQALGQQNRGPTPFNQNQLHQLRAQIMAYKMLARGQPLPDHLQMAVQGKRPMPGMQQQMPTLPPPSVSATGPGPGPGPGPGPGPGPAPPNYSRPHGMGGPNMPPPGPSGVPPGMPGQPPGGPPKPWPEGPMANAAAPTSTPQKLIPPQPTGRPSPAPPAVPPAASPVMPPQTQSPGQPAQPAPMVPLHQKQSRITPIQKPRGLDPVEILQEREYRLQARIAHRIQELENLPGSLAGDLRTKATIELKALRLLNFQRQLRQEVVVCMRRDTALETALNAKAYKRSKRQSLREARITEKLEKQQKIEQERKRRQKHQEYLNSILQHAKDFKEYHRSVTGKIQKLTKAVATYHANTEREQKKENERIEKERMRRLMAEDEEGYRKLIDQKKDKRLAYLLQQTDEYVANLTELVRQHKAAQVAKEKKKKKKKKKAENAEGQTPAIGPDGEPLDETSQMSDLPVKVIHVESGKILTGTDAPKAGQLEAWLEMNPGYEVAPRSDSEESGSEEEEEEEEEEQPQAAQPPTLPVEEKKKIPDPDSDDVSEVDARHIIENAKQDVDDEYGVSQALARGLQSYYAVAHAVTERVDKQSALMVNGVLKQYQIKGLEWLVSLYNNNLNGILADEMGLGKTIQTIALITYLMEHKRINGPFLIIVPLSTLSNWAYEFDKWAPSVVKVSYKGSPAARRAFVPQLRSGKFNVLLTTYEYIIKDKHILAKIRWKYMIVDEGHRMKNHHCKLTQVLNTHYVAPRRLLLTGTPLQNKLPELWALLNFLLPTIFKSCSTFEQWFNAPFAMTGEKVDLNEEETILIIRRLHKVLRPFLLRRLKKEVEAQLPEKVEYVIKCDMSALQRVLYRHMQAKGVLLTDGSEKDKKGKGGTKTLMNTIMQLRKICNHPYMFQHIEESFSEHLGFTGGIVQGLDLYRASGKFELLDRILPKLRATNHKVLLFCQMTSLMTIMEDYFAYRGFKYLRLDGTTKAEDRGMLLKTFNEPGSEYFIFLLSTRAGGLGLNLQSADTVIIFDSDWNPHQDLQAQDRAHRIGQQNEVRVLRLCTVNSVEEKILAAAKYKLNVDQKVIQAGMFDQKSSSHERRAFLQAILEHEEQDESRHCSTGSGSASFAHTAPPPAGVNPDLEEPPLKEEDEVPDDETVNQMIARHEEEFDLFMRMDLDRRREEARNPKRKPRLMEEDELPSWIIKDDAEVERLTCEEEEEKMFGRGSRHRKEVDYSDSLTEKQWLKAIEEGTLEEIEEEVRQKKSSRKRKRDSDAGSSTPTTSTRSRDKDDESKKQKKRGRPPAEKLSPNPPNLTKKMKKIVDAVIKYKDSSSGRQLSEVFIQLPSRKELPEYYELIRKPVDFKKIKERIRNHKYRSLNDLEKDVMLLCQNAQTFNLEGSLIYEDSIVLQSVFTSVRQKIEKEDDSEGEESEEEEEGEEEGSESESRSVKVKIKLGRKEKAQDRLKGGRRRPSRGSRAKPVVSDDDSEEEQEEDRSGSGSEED
T1 sequence (P51531 whole entry, species assumed): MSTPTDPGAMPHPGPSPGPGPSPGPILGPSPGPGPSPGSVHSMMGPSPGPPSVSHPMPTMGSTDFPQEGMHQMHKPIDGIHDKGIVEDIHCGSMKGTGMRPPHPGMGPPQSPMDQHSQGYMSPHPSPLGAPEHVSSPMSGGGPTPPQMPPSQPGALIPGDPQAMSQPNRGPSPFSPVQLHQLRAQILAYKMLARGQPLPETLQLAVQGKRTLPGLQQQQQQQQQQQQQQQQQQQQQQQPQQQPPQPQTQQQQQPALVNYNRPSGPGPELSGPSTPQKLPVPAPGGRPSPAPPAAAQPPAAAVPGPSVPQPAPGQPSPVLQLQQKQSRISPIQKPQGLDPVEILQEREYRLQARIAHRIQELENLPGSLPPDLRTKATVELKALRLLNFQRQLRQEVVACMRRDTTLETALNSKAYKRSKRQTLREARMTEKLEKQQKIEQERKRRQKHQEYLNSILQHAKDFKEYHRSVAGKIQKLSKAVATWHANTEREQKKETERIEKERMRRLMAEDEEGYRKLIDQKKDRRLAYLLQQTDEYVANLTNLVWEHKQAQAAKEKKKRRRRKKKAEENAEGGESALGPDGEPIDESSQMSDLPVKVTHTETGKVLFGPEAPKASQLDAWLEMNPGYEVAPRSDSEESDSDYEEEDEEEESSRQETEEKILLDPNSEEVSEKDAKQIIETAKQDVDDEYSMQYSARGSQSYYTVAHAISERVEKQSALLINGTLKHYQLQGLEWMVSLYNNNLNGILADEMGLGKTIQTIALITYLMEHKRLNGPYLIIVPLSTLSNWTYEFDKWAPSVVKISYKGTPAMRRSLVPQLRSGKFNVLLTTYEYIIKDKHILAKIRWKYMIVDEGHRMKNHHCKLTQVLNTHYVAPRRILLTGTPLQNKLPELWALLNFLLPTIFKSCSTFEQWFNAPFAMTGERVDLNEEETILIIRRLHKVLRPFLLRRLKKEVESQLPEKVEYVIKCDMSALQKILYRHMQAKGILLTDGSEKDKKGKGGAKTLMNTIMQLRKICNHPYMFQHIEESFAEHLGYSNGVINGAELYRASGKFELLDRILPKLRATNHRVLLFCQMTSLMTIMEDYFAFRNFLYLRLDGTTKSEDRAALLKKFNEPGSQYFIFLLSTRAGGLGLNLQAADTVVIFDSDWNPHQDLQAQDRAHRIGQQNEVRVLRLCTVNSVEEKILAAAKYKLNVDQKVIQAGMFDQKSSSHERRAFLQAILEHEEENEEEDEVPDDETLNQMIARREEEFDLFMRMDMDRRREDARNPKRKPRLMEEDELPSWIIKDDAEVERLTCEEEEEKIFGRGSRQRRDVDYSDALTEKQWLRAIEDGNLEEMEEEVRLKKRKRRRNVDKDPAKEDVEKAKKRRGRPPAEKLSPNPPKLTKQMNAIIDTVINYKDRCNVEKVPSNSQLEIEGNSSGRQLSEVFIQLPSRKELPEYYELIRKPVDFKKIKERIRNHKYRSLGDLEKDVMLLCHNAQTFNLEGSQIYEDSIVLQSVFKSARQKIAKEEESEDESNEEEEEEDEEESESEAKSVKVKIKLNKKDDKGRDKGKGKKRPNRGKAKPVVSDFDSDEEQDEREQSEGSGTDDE

With `O=C1CCC(c2ccc(N3CCC(CCN4CC5(C4)CN(C(=O)C4(c6ccccc6F)CCN(c6cnnc(-c7ccccc7O)c6)CC4)C5)CC3)cc2)C(=O)N1` (racemic) [Example 132, rac-(3R)-3-{4-[4-(2-{6-[4-(2-fluorophenyl)-1-[6-(2-hydroxyphenyl)pyridazin-4-yl]piperidine-4-carbonyl]-2,6-diazaspiro[3.3]heptan-2-yl}ethyl)piperidin-1-yl]phenyl}piperidine-2,6-dione], on SMARCA2, half-maximal degradation (DC50) was put at 10.2 nM, the Dmax is 71.6% and the “Fold Selectivity SMARCA4/2” value stood at 984. For the same molecule, the Dmax on SMARCA4 amounted to 15%.

Regarding `O=C1CC[C@H](c2ccc(N3CCC(CN4CCC5(CC4)CN(C(=O)C4(c6ccccc6)CCN(c6cnnc(-c7ccccc7O)c6)CC4)C5)CC3)nc2)C(=O)N1` [Example 189, (3R)-3-(6-{4-[(2-{1-[6-(2-hydroxyphenyl)pyridazin-4-yl]-4-phenylpiperidine-4-carbonyl}-2,7-diazaspiro[3.5]nonan-7-yl)methyl]piperidin-1-yl}pyridin-3-yl)piperidine-2,6-dione], at SMARCA2, the 50% degradation concentration (DC50) is 1.7 nM, the Dmax was found to be 93% and the “Fold Selectivity SMARCA4/2” value was 9. Also, at SMARCA4, it took 15.6 nM to reach half-maximal degradation (DC50) and the maximal degradation (Dmax) was 81.8%.

On to `O=C1CCC(c2ccc(N3CCC(CN4CC5(C4)CN(C(=O)C4(c6cccnc6)CCN(c6cnnc(-c7ccccc7O)c6)CC4)C5)CC3)cc2)C(=O)N1` (racemic) [Example 34, rac-(3R)-3-(4-{4-[(6-{1-[6-(2-hydroxyphenyl)pyridazin-4-yl]-4-(pyridin-3-yl)piperidine-4-carbonyl}-2,6-diazaspiro[3.3]heptan-2-yl)methyl]piperidin-1-yl}phenyl)piperidine-2,6-dione], for which, on SMARCA2, half-maximal degradation (DC50) was put at 47 nM, the greatest degradation seen (Dmax) was determined as 58.6% and the “Fold Selectivity SMARCA4/2” value came to 212.72. The molecule further returned a maximal degradation (Dmax) at SMARCA4 of 30.6%.

In the case of `O=C1CC[C@H](c2ccc(N3CCC(CN4CCC(NC(=O)C5(c6ccccc6)CCN(c6cnnc(-c7ccccc7O)c6)CC5)CC45CCC5)CC3)cc2)C(=O)N1` (stereo partly drawn) [Example 39, N-{5-[(1-{4-[(3R)-2,6-dioxopiperidin-3-yl]phenyl}piperidin-4-yl)methyl]-5-azaspiro[3.5]nonan-8-yl}-1-[6-(2-hydroxyphenyl)pyridazin-4-yl]-4-phenylpiperidine-4-carboxamide], at SMARCA2, it took 3.09 nM to reach half-maximal degradation (DC50), the greatest degradation seen (Dmax) stood at 84.8% and the “Fold Selectivity SMARCA4/2” value was found to be 25.67. On SMARCA4, the 50% degradation concentration (DC50) worked out at 79.3 nM and the Dmax was 53.7%.

`O=C1CCC(c2ccc(N3CCC(CN4CCN(C(=O)C5(c6ccccc6)CCN(c6cnnc(-c7ccccc7O)c6)CC5)CC4)CC3)cc2)C(=O)N1` (racemic) [Example 6, rac-(3R)-3-(4-{4-[(4-{1-[6-(2-hydroxyphenyl)pyridazin-4-yl]-4-phenylpiperidine-4-carbonyl}piperazin-1-yl)methyl]piperidin-1-yl}phenyl)piperidine-2,6-dione]: on SMARCA2, it took 121 nM to reach half-maximal degradation (DC50), the greatest degradation seen (Dmax) turned out to be 63.6% and the “Fold Selectivity SMARCA4/2” value turned out to be 82.86. In addition, at SMARCA4, the greatest degradation seen (Dmax) turned out to be 31.5%.

As to `O=C1CC[C@@H](c2cccc(N3CCC(CN4CCC5(CC4)CN(C(=O)C4(c6ccccc6)CCN(c6cnnc(-c7ccccc7O)c6)CC4)C5)CC3)c2)C(=O)N1` (racemic) [Example 101, rac-®-3-(3-(4-((2-(1-(6-(2-hydroxyphenyl)pyridazin-4-yl)-4-phenylpiperidine-4-carbonyl)-2,7-diazaspiro[3.5]nonan-7-yl)methyl)piperidin-1-yl)phenyl)piperidine-2,6-dione], at SMARCA2, the half-maximal degradation concentration (DC50) was 19.5 nM, the Dmax was found to be 71% and the “Fold Selectivity SMARCA4/2” value is on record as 6. At SMARCA4, this molecule had a half-maximal degradation concentration (DC50) of 114 nM and a Dmax of 60.2%.

A word on the DC50: it is the concentration at which degradation of the target reaches its halfway point. Higher therefore signals a less potent degrader. The Dmax is the greatest extent of degradation seen.
